Test results: patent US20260132125A1, “PESTICIDALLY ACTIVE FUSED BICYCLIC HETEROAROMATIC COMPOUNDS” (priority 2022, published 2026)

Tests used:
Assay type in all cases: in vivo
Chilo suppressalis = assay: Example B1: activity against Chilo suppressalis (striped rice stemborer), artificial diet; conditions: for percent control (mortality, anti-feedant effect or growth inhibition) at 200 ppm: 144 h, L2 larvae, 6 days after infestation, read-out: control (at least one of mortality, anti-feedant effect, growth inhibition)
Experimental: 24-well microtiter plates with artificial diet were treated with aqueous test solutions prepared from 10′000 ppm DMSO stock solutions by pipetting. After drying, the plates were infested with L2 larvae (6-8 per well). The samples were assessed for mortality, anti-feeding effect, and growth inhibition in comparison to untreated samples 6 days after infestation. Control of Chilo suppressalis by a test sample is given when at least one of the categories mortality, anti-feedant effect, and growth inhibition is higher than the untreated sample.

Diabrotica balteata = assay: Example B2: activity against Diabrotica balteata (corn root worm), maize sprouts; conditions: 96 h, L2 larvae, 4 days after infestation, read-out: effect in at least one of the two categories (mortality or growth inhibition)
Experimental: Maize sprouts placed onto an agar layer in 24-well microtiter plates were treated with aqueous test solutions prepared from 10′000 ppm DMSO stock solutions by spraying. After drying, the plates were infested with L2 larvae (6 to 10 per well). The samples were assessed for mortality and growth inhibition in comparison to untreated samples 4 days after infestation. The following compounds gave an effect of at least 80% in at least one of the two categories (mortality or growth inhibition) at an application rate of 200 ppm: P1, P2, P3, P4, P5, P7, P8, P9, P10, P11, P12, P13, P14, P15, P16, P17, P18, P19, P20, P21, P22, P23, P24, P25, P26, P27, P28, P29, P30, P31, P33, P34, P35, P36, P37, P38, P39, P40, P41, P42, P43, P45, P46, P47, P48, P49, P50, P51, P52, P53, P55, P57, P58, P59, P60, P61, P62, P63, P64, P65, P66, P67, P69, P71, P75, P81, P82, P83.

Myzus persicae = assay: Example B4: activity against Myzus persicae (green peach aphid), intrinsic activity; conditions: 120 h, test rate 12 ppm, 5 days after infestation
Experimental: Test compounds prepared from 10′000 ppm DMSO stock solutions were applied by pipette into 24-well microtiter plates and mixed with sucrose solution. The plates were closed with a stretched Parafilm. A plastic stencil with 24 holes was placed onto the plate and infested pea seedlings were placed directly on the Parafilm. The infested plate was closed with a gel blotting paper and another plastic stencil and then turned upside down. The samples were assessed for mortality 5 days after infestation.

Plutella xylostella = assay: Example B5: activity against Plutella xylostella (diamond back moth), artificial diet, eggs; conditions: 192 h, 8 days after infestation, read-out: effect in at least one of the two categories (mortality or growth inhibition)
Experimental: 24-well microtiter plates with artificial diet were treated with aqueous test solutions prepared from 10′000 ppm DMSO stock solutions by pipetting. After drying, Plutella eggs were pipetted through a plastic stencil onto a gel blotting paper and the plate was closed with it. The samples were assessed for mortality and growth inhibition in comparison to untreated samples 8 days after infestation. The following compounds gave an effect of at least 80% in at least one of the two categories (mortality or growth inhibition) at an application rate of 200 ppm: P1, P2, P3, P4, P5, P6, P7, P8, P9, P10, P11, P12, P13, P14, P15, P16, P17, P18, P19, P20, P21, P22, P23, P24, P25, P26, P27, P28, P29, P30, P31, P32, P33, P34, P35, P36, P37, P38, P39, P40, P41, P42, P43, P44, P45, P46, P47, P48, P49, P50, P51, P52, P53, P54, P55, P57, P58, P59, P60, P61, P62, P63, P64, P65, P66, P67, P69, P70, P71, P72, P73, P74, P75, P77, P78, P81, P82, P83.

Spodoptera littoralis = assay: Example B6: activity against Spodoptera littoralis (Egyptian cotton leaf worm), cotton leaf discs; conditions: foliar, 72 h, 200 ppm, L1 larvae, 3 days after infestation, read-out: control (at least one of mortality, anti-feedant effect, growth inhibition)
Experimental: Cotton leaf discs were placed onto agar in 24-well microtiter plates and sprayed with aqueous test solutions prepared from 10′000 ppm DMSO stock solutions. After drying the leaf discs were infested with five L1 larvae. The samples were assessed for mortality, anti-feeding effect, and growth inhibition in comparison to untreated samples 3 days after infestation. Control of Spodoptera littoralis by a test sample is given when at least one of the categories mortality, anti-feedant effect, and growth inhibition is higher than the untreated sample.

With `CNC(=O)c1cc(-n2ncnc2[C@H](C)Nc2ncnc3c(Cl)cc(I)cc23)ncn1` [Compound P4, 6-[5-[(1S)-1-[(8-chloro-6-iodo-quinazolin-4-yl)amino]ethyl]-1,2,4-triazol-1-yl]-N-methyl-pyrimidine-4-carboxamide] the percent control (mortality, anti-feedant effect or growth inhibition) at 200 ppm (Chilo suppressalis) was ≥ 80%, the percent effect (mortality or growth inhibition) at 200 ppm (Diabrotica balteata) was ≥ 80% and the mortality at 12 ppm (Myzus persicae) was ≥ 80%. The percent effect (mortality or growth inhibition) at 200 ppm (Plutella xylostella) was ≥ 80% and the percent control (mortality, anti-feedant effect or growth inhibition) at 200 ppm (Spodoptera littoralis) was ≥ 80%.
In the case of `CNC(=O)c1cc(-n2ncnc2[C@H](C)N(C)c2ncnc3c(Br)cc(Br)cc23)ncn1` [Compound P11, 6-[5-[(1S)-1-[(6,8-dibromoquinazolin-4-yl)-methyl-amino]ethyl]-1,2,4-triazol-1-yl]-N-methyl-pyrimidine-4-carboxamide], the percent control (mortality, anti-feedant effect or growth inhibition) at 200 ppm (Chilo suppressalis) is reported as ≥ 80%, the percent effect (mortality or growth inhibition) at 200 ppm (Diabrotica balteata) is reported as ≥ 80% and the mortality at 12 ppm (Myzus persicae) is reported as ≥ 80%. For the same compound, the percent effect (mortality or growth inhibition) at 200 ppm (Plutella xylostella) was ≥ 80% and the percent control (mortality, anti-feedant effect or growth inhibition) at 200 ppm (Spodoptera littoralis) was ≥ 80%.
`CNC(=O)c1cc(-n2ncnc2[C@H](C)Nc2ncnc3c(Br)cc(Br)cc23)ncn1` [Compound P12, 6-[5-[(1S)-1-[(6,8-dibromoquinazolin-4-yl)amino]ethyl]-1,2,4-triazol-1-yl]-N-methyl-pyrimidine-4-carboxamide] was tested, and the percent control (mortality, anti-feedant effect or growth inhibition) at 200 ppm (Chilo suppressalis) was ≥ 80%, the percent effect (mortality or growth inhibition) at 200 ppm (Diabrotica balteata) was ≥ 80% and the mortality at 12 ppm (Myzus persicae) was ≥ 80%. The percent effect (mortality or growth inhibition) at 200 ppm (Plutella xylostella) was ≥ 80% and the percent control (mortality, anti-feedant effect or growth inhibition) at 200 ppm (Spodoptera littoralis) was ≥ 80%.
In the case of `C[C@H](Nc1ncnc2c(Cl)cc(I)cc12)c1ncnn1-c1cc(C#N)ncn1` [Compound P18, 6-[5-[(1S)-1-[(8-chloro-6-iodo-quinazolin-4-yl)amino]ethyl]-1,2,4-triazol-1-yl]pyrimidine-4-carbonitrile], the percent control (mortality, anti-feedant effect or growth inhibition) at 200 ppm (Chilo suppressalis) is reported as ≥ 80%, the percent effect (mortality or growth inhibition) at 200 ppm (Diabrotica balteata) is reported as ≥ 80% and the mortality at 12 ppm (Myzus persicae) is reported as ≥ 80%. The percent effect (mortality or growth inhibition) at 200 ppm (Plutella xylostella) was ≥ 80% and the percent control (mortality, anti-feedant effect or growth inhibition) at 200 ppm (Spodoptera littoralis) was ≥ 80%.
`C[C@H](Nc1ncnc2c(C(F)(F)F)cc(Cl)cc12)c1ncnn1-c1cc(C#N)ncn1` [Compound P19, 6-[5-[(1S)-1-[[6-chloro-8-(trifluoromethyl)quinazolin-4-yl]amino]ethyl]-1,2,4-triazol-1-yl]pyrimidine-4-carbonitrile] was tested, and the mortality at 12.5 ppm (Chilo suppressalis; 12.5 ppm) was 80%, the percent control (mortality, anti-feedant effect or growth inhibition) at 200 ppm (Chilo suppressalis) was ≥ 80% and the percent effect (mortality or growth inhibition) at 200 ppm (Diabrotica balteata) was ≥ 80%. The mortality at 12 ppm (Myzus persicae) was ≥ 80%, the percent effect (mortality or growth inhibition) at 200 ppm (Plutella xylostella) was ≥ 80% and the percent control (mortality, anti-feedant effect or growth inhibition) at 200 ppm (Spodoptera littoralis) was ≥ 80%.
For `C[C@H](Nc1ncnc2c(C(F)(F)F)cc(Cl)cc12)c1ncnn1-c1cc(C(=O)NC2CC2)ncn1` [Compound P23, 6-[5-[(1S)-1-[[6-chloro-8-(trifluoromethyl)quinazolin-4-yl]amino]ethyl]-1,2,4-triazol-1-yl]-N-cyclopropyl-pyrimidine-4-carboxamide], the percent control (mortality, anti-feedant effect or growth inhibition) at 200 ppm (Chilo suppressalis) was ≥ 80%, the percent effect (mortality or growth inhibition) at 200 ppm (Diabrotica balteata) was ≥ 80% and the mortality at 12 ppm (Myzus persicae) was ≥ 80%. The percent effect (mortality or growth inhibition) at 200 ppm (Plutella xylostella) was ≥ 80% and the percent control (mortality, anti-feedant effect or growth inhibition) at 200 ppm (Spodoptera littoralis) was ≥ 80%.
In the case of `C[C@H](Nc1ncnc2c(C(F)(F)F)cc(Cl)cc12)c1ncnn1-c1cc(C(=O)NC2CS(=O)(=O)C2)ncn1` [Compound P24, 6-[5-[(1S)-1-[[6-chloro-8-(trifluoromethyl)quinazolin-4-yl]amino]ethyl]-1,2,4-triazol-1-yl]-N-(1,1-dioxothietan-3-yl)pyrimidine-4-carboxamide], the percent control (mortality, anti-feedant effect or growth inhibition) at 200 ppm (Chilo suppressalis) is reported as ≥ 80%, the percent effect (mortality or growth inhibition) at 200 ppm (Diabrotica balteata) is reported as ≥ 80% and the mortality at 12 ppm (Myzus persicae) is reported as ≥ 80%. The percent effect (mortality or growth inhibition) at 200 ppm (Plutella xylostella) was ≥ 80% and the percent control (mortality, anti-feedant effect or growth inhibition) at 200 ppm (Spodoptera littoralis) was ≥ 80%.
With `C[C@H](Nc1ncnc2c(C(F)(F)F)cc(Cl)cc12)c1ncnn1-c1cc(C(=O)NC2CSC2)ncn1` [Compound P25, 6-[5-[(1S)-1-[[6-chloro-8-(trifluoromethyl)quinazolin-4-yl]amino]ethyl]-1,2,4-triazol-1-yl]-N-(thietan-3-yl)pyrimidine-4-carboxamide] the percent control (mortality, anti-feedant effect or growth inhibition) at 200 ppm (Chilo suppressalis) was ≥ 80%, the percent effect (mortality or growth inhibition) at 200 ppm (Diabrotica balteata) was ≥ 80% and the mortality at 12 ppm (Myzus persicae) was ≥ 80%. The percent effect (mortality or growth inhibition) at 200 ppm (Plutella xylostella) was ≥ 80% and the percent control (mortality, anti-feedant effect or growth inhibition) at 200 ppm (Spodoptera littoralis) was ≥ 80%.
With `C[C@H](Nc1ncnc2c(C(F)(F)F)cc(Cl)cc12)c1ncnn1-c1cc(C(=O)NO)ncn1` [Compound P26, 6-[5-[(1S)-1-[[6-chloro-8-(trifluoromethyl)quinazolin-4-yl]amino]ethyl]-1,2,4-triazol-1-yl]pyrimidine-4-carbohydroxamic acid] the percent control (mortality, anti-feedant effect or growth inhibition) at 200 ppm (Chilo suppressalis) was ≥ 80%, the percent effect (mortality or growth inhibition) at 200 ppm (Diabrotica balteata) was ≥ 80% and the mortality at 12 ppm (Myzus persicae) was ≥ 80%. The percent effect (mortality or growth inhibition) at 200 ppm (Plutella xylostella) was ≥ 80% and the percent control (mortality, anti-feedant effect or growth inhibition) at 200 ppm (Spodoptera littoralis) was ≥ 80%.
With `CNC(=O)c1cc(-n2ncnc2[C@H](C)N(C)c2ncnc3c(Cl)cc(I)cc23)ncn1` [Compound P34, 6-[5-[(1S)-1-[(8-chloro-6-iodo-quinazolin-4-yl)-methyl-amino]ethyl]-1,2,4-triazol-1-yl]-N-methyl-pyrimidine-4-carboxamide] the percent control (mortality, anti-feedant effect or growth inhibition) at 200 ppm (Chilo suppressalis) was ≥ 80%, the percent effect (mortality or growth inhibition) at 200 ppm (Diabrotica balteata) was ≥ 80% and the mortality at 12 ppm (Myzus persicae) was ≥ 80%. For the same compound, the percent effect (mortality or growth inhibition) at 200 ppm (Plutella xylostella) was ≥ 80% and the percent control (mortality, anti-feedant effect or growth inhibition) at 200 ppm (Spodoptera littoralis) was ≥ 80%.
`C[C@H](Nc1ncnc2c(Br)cc(Br)cc12)c1ncnn1-c1ncc(C(N)=O)s1` [Compound P36, 2-[5-[(1S)-1-[(6,8-dibromoquinazolin-4-yl)amino]ethyl]-1,2,4-triazol-1-yl]thiazole-5-carboxamide] was tested, and the percent control (mortality, anti-feedant effect or growth inhibition) at 200 ppm (Chilo suppressalis) was ≥ 80%, the percent effect (mortality or growth inhibition) at 200 ppm (Diabrotica balteata) was ≥ 80% and the mortality at 12 ppm (Myzus persicae) was ≥ 80%. The percent effect (mortality or growth inhibition) at 200 ppm (Plutella xylostella) was ≥ 80% and the percent control (mortality, anti-feedant effect or growth inhibition) at 200 ppm (Spodoptera littoralis) was ≥ 80%.
For `C[C@H](Nc1ncnc2c(Br)cc(Br)cc12)c1ncnn1-c1cnc(C(=O)NCC#N)cn1` [Compound P72, N-(cyanomethyl)-5-[5-[(1S)-1-[(6,8-dibromoquinazolin-4-yl)amino]ethyl]-1,2,4-triazol-1-yl]pyrazine-2-carboxamide], the percent control (mortality, anti-feedant effect or growth inhibition) at 200 ppm (Chilo suppressalis) was ≥ 80%, the mortality at 12 ppm (Myzus persicae) was ≥ 80% and the percent effect (mortality or growth inhibition) at 200 ppm (Plutella xylostella) was ≥ 80%. For the same compound, the percent control (mortality, anti-feedant effect or growth inhibition) at 200 ppm (Spodoptera littoralis) was ≥ 80%.
In the case of `C[C@H](Nc1ncnc2c(I)cc(Cl)cc12)c1ncnn1-c1cnc(C(=O)NCC#N)cn1` [Compound P73, 5-[5-[(1S)-1-[(6-chloro-8-iodo-quinazolin-4-yl)amino]ethyl]-1,2,4-triazol-1-yl]-N-(cyanomethyl)pyrazine-2-carboxamide], the percent control (mortality, anti-feedant effect or growth inhibition) at 200 ppm (Chilo suppressalis) is reported as ≥ 80%, the mortality at 12 ppm (Myzus persicae) is reported as ≥ 80% and the percent effect (mortality or growth inhibition) at 200 ppm (Plutella xylostella) is reported as ≥ 80%. The percent control (mortality, anti-feedant effect or growth inhibition) at 200 ppm (Spodoptera littoralis) was ≥ 80%.
